Test results: ChEMBL document CHEMBL4219148, “Discovery of a highly potent orally bioavailable imidazo-[1, 2-a]pyrazine Aurora inhibitor” (Bioorg Med Chem Lett, 2018)

What was measured:
[1] = biological target: Cytochrome P450 2C19 (Homo sapiens, UniProt P33261); assay: Inhibition of CYP2C19 in human liver microsomes; format: ADME
[2] = system: A2780; assay: Antitumor activity against human A2780 cells xenografted in nu/nu mouse assessed as tumor growth inhibition at 300 mg/kg, po bid; format: functional; conditions: read-out: TGI
[3] = system: HCT-116; assay: Induction of endoreduplication in human HCT116 cells assessed as accumulation of >=4 N DNA preincubated for 24 hrs followed by compound washout by FACS analysis; format: functional
[4] = system: Mus musculus; assay: Toxicity in nu/nu mouse xenografted with human A2780 cells assessed as death at 10 to 25 mg/kg, po after 3 days; format: organism-based; conditions: in vivo, 72 h

Chain of Cytochrome P450 2C19 (P33261 whole entry): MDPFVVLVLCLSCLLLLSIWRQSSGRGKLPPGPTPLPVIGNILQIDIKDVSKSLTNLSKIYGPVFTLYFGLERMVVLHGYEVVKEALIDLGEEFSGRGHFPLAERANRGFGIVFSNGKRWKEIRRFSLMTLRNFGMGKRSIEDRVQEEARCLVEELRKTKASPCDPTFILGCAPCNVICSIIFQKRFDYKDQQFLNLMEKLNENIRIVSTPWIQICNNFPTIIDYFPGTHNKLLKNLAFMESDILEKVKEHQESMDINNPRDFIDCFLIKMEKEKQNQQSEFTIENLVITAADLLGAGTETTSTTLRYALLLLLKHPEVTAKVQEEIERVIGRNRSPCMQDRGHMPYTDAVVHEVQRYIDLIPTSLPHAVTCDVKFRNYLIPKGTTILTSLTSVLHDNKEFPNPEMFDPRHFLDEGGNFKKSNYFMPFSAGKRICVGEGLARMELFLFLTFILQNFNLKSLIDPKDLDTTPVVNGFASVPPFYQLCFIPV

Question: With Cc1cn2c(-c3cn[nH]c3)cnc2c(Nc2cc(Cc3ccccn3)ns2)n1 as the compound, how does the IC50 [1] read?
Answer: Its IC50 is > 20 µM.

Question: And the inhibition in vivo at 300 mg/kg [2]?
Answer: The inhibition in vivo at 300 mg/kg was 61%.

Question: For Cc1cn2c(-c3cn[nH]c3)cnc2c(Nc2cc(C(NC(C)(C)C)c3ccccn3)ns2)n1 (single isomer, unassigned; (+)), which Cmin [3] is on record?
Answer: Its Cmin is 6 nM.

Question: What about the Activity [4] of the same compound?
Answer: The Activity was “Toxic”.
